{"source": "ChEMBL document CHEMBL4476870", "about": "“Arf6 inhibitors and methods of synthesis and use thereof” (2017)", "key": {"[1]": {"system": "Mus musculus", "test": "Reduction in LPS-induced acute lung injury in mouse assessed as reduction in protein concentration at 5 mg/kg dosed 2 hrs post LPS challenge", "assay_type": "functional, organism-based"}, "[2]": {"system": "Mus musculus", "test": "Reduction in LPS-induced acute lung injury in mouse assessed as reduction in number of cells in BALF at 5 mg/kg dosed 2 hrs post LPS challenge", "assay_type": "functional, organism-based"}, "[3]": {"species_on_record": "Homo sapiens", "test": "Antiproliferative activity against human LOX cells assessed as inhibition of cell proliferation at >1 uM by WST8 dye based colorimetric assay", "assay_type": "functional"}, "[4]": {"system": "Mus musculus", "test": "Reduction in LPS-induced acute lung injury in mouse assessed as reduction in number of cells in BALF at 60 mg/kg dosed 3 hrs post LPS challenge", "assay_type": "functional, organism-based"}, "[5]": {"system": "Mus musculus", "test": "Reduction in LPS-induced acute lung injury in mouse assessed as reduction in number of cells in BALF at 60 mg/kg dosed 4 hrs post LPS challenge", "assay_type": "functional, organism-based"}, "[6]": {"system": "Mus musculus", "test": "Reduction in LPS-induced acute lung injury in mouse assessed as reduction in protein concentration at 60 mg/kg dosed 3 hrs post LPS challenge", "assay_type": "functional, organism-based"}, "[7]": {"system": "LN-229", "test": "Antiproliferative activity against human LN229 cells assessed as inhibition of cell proliferation at >1 uM by WST8 dye based colorimetric assay", "assay_type": "functional"}, "[8]": {"system": "Mus musculus", "test": "Reduction in oxygen-induced retinopathy in mouse placed in 75% oxygen-environment from day 5 to 12 assessed as reduction in neovascularization at 5 ug dosed via intraocular injection on day 12 and 15 and measured on day 17", "assay_type": "functional, organism-based"}, "[9]": {"system": "Mus musculus", "test": "Inhibition of choroidal neovascularization in mouse with laser-induced Bruch's membrane disruption dosed on day 0 and 7 and measured on day 14", "assay_type": "functional, organism-based"}, "[10]": {"test": "Antiinvasive activity against human LOX cells assessed as inhibition of 5% FBS-induced cell invasion at 1 uM by Matrigel based cell invasion assay", "assay_type": "functional"}, "[11]": {"target": "PH and SEC7 domain-containing protein 1 (Mus musculus) (UniProt Q5DTT2)", "sequence (Q5DTT2 whole entry, the tested form may be a part)": "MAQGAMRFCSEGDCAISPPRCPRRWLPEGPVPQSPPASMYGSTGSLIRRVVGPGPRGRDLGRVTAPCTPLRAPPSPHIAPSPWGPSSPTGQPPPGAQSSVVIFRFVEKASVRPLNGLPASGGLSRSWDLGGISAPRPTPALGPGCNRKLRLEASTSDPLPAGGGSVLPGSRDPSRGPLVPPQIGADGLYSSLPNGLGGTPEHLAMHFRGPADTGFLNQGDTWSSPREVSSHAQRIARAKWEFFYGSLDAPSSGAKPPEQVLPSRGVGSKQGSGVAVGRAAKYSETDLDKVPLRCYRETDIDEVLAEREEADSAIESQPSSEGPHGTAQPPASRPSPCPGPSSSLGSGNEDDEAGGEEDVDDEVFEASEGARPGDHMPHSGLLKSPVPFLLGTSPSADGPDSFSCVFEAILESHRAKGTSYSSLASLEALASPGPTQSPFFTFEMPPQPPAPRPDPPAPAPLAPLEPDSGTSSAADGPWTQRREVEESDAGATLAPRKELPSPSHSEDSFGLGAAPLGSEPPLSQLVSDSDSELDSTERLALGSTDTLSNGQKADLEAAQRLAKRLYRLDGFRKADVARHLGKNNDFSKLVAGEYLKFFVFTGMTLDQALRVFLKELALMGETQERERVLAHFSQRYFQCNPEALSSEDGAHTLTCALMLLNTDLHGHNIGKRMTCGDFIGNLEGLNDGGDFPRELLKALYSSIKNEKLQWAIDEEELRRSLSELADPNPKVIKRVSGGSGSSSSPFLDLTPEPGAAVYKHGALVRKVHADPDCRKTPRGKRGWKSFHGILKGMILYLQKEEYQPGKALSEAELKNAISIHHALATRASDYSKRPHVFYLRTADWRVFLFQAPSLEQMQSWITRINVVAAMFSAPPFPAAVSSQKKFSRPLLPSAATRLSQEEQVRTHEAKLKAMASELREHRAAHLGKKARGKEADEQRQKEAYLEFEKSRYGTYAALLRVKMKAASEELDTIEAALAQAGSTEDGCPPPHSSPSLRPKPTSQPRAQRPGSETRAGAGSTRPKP", "test": "Inhibition of Arf6 activation in mouse NIH/3T3 cells assessed as effect on GTP-bound Arf6 incubated for 4 hrs immobilized GST-tagged Gga3 by based pull down assay", "assay_type": "cell-based"}, "[12]": {"system": "Rattus norvegicus", "test": "Inhibition of VEGF-induced retinal permeability in rat assessed as reduction in vascular leak at 60 mg/kg, ip dosed 1 hr before VEGF injection on day1 followed by Evan blue dye injection on day2 and measured on day 3", "assay_type": "functional, organism-based"}, "[13]": {"system": "Mus musculus", "test": "Reduction in LPS-induced acute lung injury in mouse assessed as reduction in protein concentration at 60 mg/kg dosed 4 hrs post LPS challenge", "assay_type": "functional, organism-based"}, "[14]": {"system": "Mus musculus", "test": "Inhibition of VEGF-induced retinal permeability in mouse at 50 ng dosed as single intraocular injection followed by Evan blue dye injection 6 hrs post drug dose and measured after 2 hrs", "assay_type": "functional, organism-based"}, "[15]": {"system": "Mus musculus", "test": "Inhibition of VEGF-induced retinal permeability in mouse at 500 ng dosed as single intraocular injection followed by Evan blue dye injection 6 hrs post drug dose and measured after 2 hrs", "assay_type": "functional, organism-based"}, "[16]": {"system": "Influenza A virus", "test": "Antiviral activity against Influenza A virus (H1N1) infected in mouse assessed as reduction in virus-infection induced mortality by measuring mouse survival at 20 mg/kg, ip qd for 5 days dosed 4 hrs before virus infection", "assay_type": "functional, organism-based"}, "[17]": {"species_on_record": "Homo sapiens", "test": "Antiinvasive activity against human LOX cells assessed as inhibition of 5% FBS-induced cell invasion at 30 uM by Matrigel based cell invasion assay", "assay_type": "functional"}, "[18]": {"system": "Mus musculus", "test": "Anti-inflammatory activity in mouse model of collagen-induced arthritis assessed as reduction in arthritic index at 10 to 60 mg/kg, BID for 14 days and measured up to 15 days post dose", "assay_type": "functional, organism-based"}, "[19]": {"system": "Mus musculus", "test": "Inhibition of choroidal neovascularization in mouse with laser-induced Bruch's membrane disruption at 5 ug dosed on day 0 and 7 and measured on day 14", "assay_type": "functional, organism-based"}, "[20]": {"system": "Mus musculus", "test": "Inhibition of VEGF-induced retinal permeability in mouse at 5 ug dosed as single intraocular injection followed by Evan blue dye injection 6 hrs post drug dose and measured after 2 hrs", "assay_type": "functional, organism-based"}}, "note": "The source made the active and inactive calls. The rule behind the calls is not given here."}
{"smiles": "C[C@@H]1C[C@H]2[C@@H]3CCC4=CC(=O)C=C[C@]4(C)[C@@]3(F)[C@@H](O)C[C@]2(C)[C@@]1(O)C(=O)CO", "values": [{"measurement": "inhibition", "setting": "[1]", "value": "Active"}, {"measurement": "inhibition", "setting": "[2]", "value": "Active"}]}
{"smiles": "O=c1cc(-c2ccc([N+](=O)[O-])cc2)[nH]c2c(-c3ccc(Cl)cc3)c(Cc3ccccc3)nn12", "values": [{"measurement": "inhibition", "setting": "[3]", "value": "Active"}, {"measurement": "inhibition", "setting": "[4]", "value": "Active"}, {"measurement": "inhibition", "setting": "[5]", "value": "Active"}, {"measurement": "inhibition", "setting": "[6]", "value": "Active"}, {"measurement": "inhibition", "setting": "[7]", "value": "Active"}, {"measurement": "inhibition", "setting": "[8]", "value": "Active"}, {"measurement": "inhibition", "setting": "[9]", "value": "Dose-dependent effect"}, {"measurement": "inhibition at 1 µM", "setting": "[10]", "value": 100, "unit": "%"}, {"measurement": "inhibition", "setting": "[11]", "value": "Active"}, {"measurement": "inhibition", "setting": "[12]", "value": "Active"}, {"measurement": "inhibition", "setting": "[13]", "value": "Active"}, {"measurement": "inhibition", "setting": "[14]", "value": "Active"}, {"measurement": "inhibition", "setting": "[15]", "value": "Active"}]}
{"smiles": "O=c1cc(Cc2ccccc2)[nH]c2c(-c3ccc(Cl)cc3)c(C(F)(F)F)nn12", "values": [{"measurement": "Activity", "setting": "[16]", "value": "Active"}, {"measurement": "inhibition", "setting": "[15]", "value": "Active"}]}
{"smiles": "COc1nc(-c2ccc3c(c2)OCO3)n(-c2ccc(NC(=O)CSc3ccccc3)cc2)n1", "values": [{"measurement": "inhibition", "setting": "[17]", "value": "Active"}]}
{"smiles": "O=c1cc(-c2cccc(Oc3ccccc3)c2)[nH]c2c(-c3ccc(Cl)c(Cl)c3)c(C(F)(F)F)nn12", "values": [{"measurement": "Activity", "setting": "[18]", "value": "Dose-dependent effect"}, {"measurement": "inhibition", "setting": "[8]", "value": "Active"}]}
{"smiles": "COc1ccc(-c2c(Cc3ccccc3)nn3c(=O)cc(C)[nH]c23)cc1", "values": [{"measurement": "inhibition", "setting": "[15]", "value": "Active"}]}
{"smiles": "CN(C)c1ccc(/C=C2/C(=O)Nc3ccccc32)cc1", "values": [{"measurement": "inhibition", "setting": "[19]", "value": "Active"}, {"measurement": "inhibition", "setting": "[8]", "value": "Active"}, {"measurement": "inhibition", "setting": "[20]", "value": "inactive"}]}
